# Experimental data taken from BindingDB's records for doi:10.1021/ja050122x (Yale University, 2005).
# Target: Bcl-2-like protein 1 (Homo sapiens, UniProt Q07817)
# Experiment: Fluorescence Polarization Assay
# Settings: pH 7.4; 25 °C
# Description: Fluorescence polarization experiments were conducted on a Photon Technology International instrument using a 0.3 cm path length cuvette. Spectra were measured at 25 deg C using 10.0 nm slit widths. Excitation at 495 nm was used for the fluorescein-containing peptide Fl-Bak and the emission maximum at 535 nm was monitored. Polarization measurements were recorded upon titration of inhibitors at varying concentrations into a solution of Fl-Bak and Bcl-xL. Regression analysis was carried out using SigmaPlot 2001 (Systat Co.) ligand binding macro module. Experimental data were fitted to determine the IC50 values, which can be related to the known affinity of the 16-mer Bak peptide (Kd =120 nM) to acquire the inhibitory constant Ki.
# Bcl-2-like protein 1, sequence (Q07817 whole entry): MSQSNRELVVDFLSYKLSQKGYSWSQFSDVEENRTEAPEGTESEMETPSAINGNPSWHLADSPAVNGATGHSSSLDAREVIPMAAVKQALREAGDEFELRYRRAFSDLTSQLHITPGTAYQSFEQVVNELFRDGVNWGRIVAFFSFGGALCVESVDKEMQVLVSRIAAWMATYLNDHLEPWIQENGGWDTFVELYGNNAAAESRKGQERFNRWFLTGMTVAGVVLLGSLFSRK
row,SMILES,Ki
1,"O=C(O)COc1ccc(-c2ccc(-c3ccccc3)cc2)cc1 [terphenyl scaffold, 30]",> 30 µM
2,"CC(C)Cc1cc(CCC(=O)O)ccc1-c1ccc(-c2ccc(OCC(=O)O)c(Cc3ccccc3)c2)c(Cc2ccccc2)c1 [terphenyl scaffold, 18]",2.73 µM
3,"Cc1cc(OCC(=O)O)ccc1-c1ccc(-c2cccc(C(C)C)c2)c(C)c1 [terphenyl scaffold, 26]",10.4 µM
4,"CC(C)Cc1cc(-c2ccc(-c3ccc(CCC(=O)O)cc3CC(C)C)cc2C(C)C)ccc1OCC(=O)O [terphenyl scaffold, 15]",2.09 µM
5,"CC(C)Cc1cc(-c2ccc(-c3ccc(CCC(=O)O)cc3CC(C)C)cc2Cc2ccccc2)ccc1OCC(=O)O [terphenyl scaffold, 16]",1.82 µM
6,"CC(C)Cc1cc(OCC(=O)O)ccc1-c1ccc(-c2cccc(C(C)C)c2)c(CC(C)C)c1 [terphenyl scaffold, 27]",4.82 µM
7,"Cc1cccc(-c2ccc(-c3ccc(OCC(=O)O)cc3C)cc2C)c1 [terphenyl scaffold, 25]",18.2 µM
8,"COC(=O)CCc1ccc(-c2ccc(-c3ccc(OCC(=O)OC)cc3)cc2)cc1 [terphenyl scaffold, 22]",> 30 µM
9,"Cc1cc(CCC(=O)O)ccc1-c1cc(C)c(-c2ccc(OCC(=O)O)c(Cc3ccccc3)c2)c(C)c1 [terphenyl scaffold, 20]",2.34 µM
10,CCc1cc(-c2ccc(OCC(=O)O)cc2C(C)C)ccc1-c1cccc(Cc2cccc3ccccc23)c1,6.88 µM
11,"CCc1cc(-c2ccc(OCC(=O)O)cc2C(C)C)ccc1-c1cccc(Cc2ccccc2)c1 [terphenyl scaffold, 28]",3.27 µM
12,"CC(C)Cc1cc(-c2ccc(-c3ccc(CCCN)cc3CC(C)C)cc2C(C)C)ccc1OCCN [terphenyl scaffold, 24]",13.6 µM
13,"CC(C)Cc1cc(CCC(=O)O)ccc1-c1ccc(-c2ccc(OCC(=O)O)c(Cc3cccc4ccccc34)c2)c(CC(C)C)c1 [terphenyl scaffold, 19]",2.7 µM
14,"CC(C)Cc1cc(-c2ccc(-c3ccc(CCC(=O)O)cc3CC(C)C)cc2Cc2ccc3ccccc3c2)ccc1OCC(=O)O [terphenyl scaffold, 17]",2.5 µM
15,"CC(C)Cc1cc(-c2ccc(-c3ccc(CCC(=O)O)cc3CC(C)C)cc2Cc2cccc3ccccc23)ccc1OCC(=O)O [terphenyl scaffold, 14]",0.114 µM
16,"Cc1cc(CCC(=O)O)ccc1-c1cc(C)c(-c2ccc(OCC(=O)O)c(Cc3ccccc3)c2)c(CCC(=O)O)c1 [terphenyl scaffold, 21]",> 30 µM
